The supplement of paper PMC10307832

Key:
Assay in all cases: relative viability (nuclei count vs DMSO), 5 days (fraction); higher = more cells survive
[1] = compound: CC1=C(CC(=O)O)c2cc(F)ccc2/C1=C\c1ccc([S+](C)[O-])cc1 [Sulindac] + CC(=O)c1c(C)c2cnc(Nc3ccc(N4CCNCC4)cn3)nc2n(C2CCCC2)c1=O [Palbociclib] (partner 0.5 µM)
How it was run: (§1)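 Lung cancer cell lines in 1536-well plates got either a single drug or a fixed anchor-drug dose together with five library-drug doses (not always all listed) in √10 steps, by pin tool, on the day after seeding. Nuclei were counted after 5 days, and relative viability is the treated-to-vehicle ratio of nuclei counts. Values are medians of duplicate plates.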

[2] = compound: CN[C@@H]1C[C@H]2O[C@@](C)([C@@H]1OC)n1c3ccccc3c3c4c(c5c6ccccc6n2c5c31)C(=O)NC4 [Staurosporine] + CC(=O)Nc1cccc(-n2c(=O)n(C3CC3)c(=O)c3c(Nc4ccc(I)cc4F)n(C)c(=O)c(C)c32)c1 [Trametinib] (partner 0.02 µM)
How it was run: as §1

[3] = compound: CN[C@@H]1C[C@H]2O[C@@](C)([C@@H]1OC)n1c3ccccc3c3c4c(c5c6ccccc6n2c5c31)C(=O)NC4 [Staurosporine] + Cc1nc(NC(=O)N2CCC[C@H]2C(N)=O)sc1-c1ccnc(C(C)(C)C(F)(F)F)c1 [Alpelisib] (partner 2 µM)
How it was run: as §1

[4] = compound: O=c1[nH]cc(F)c(=O)[nH]1 [5-Fluorouracil] + CCNC(=O)c1noc(-c2cc(C(C)C)c(O)cc2O)c1-c1ccc(CN2CCOCC2)cc1 [Luminespib] (partner 0.01 µM)
How it was run: as §1

Cell Line	relative viability ([1]; first compound 0.08 µM)	relative viability ([1]; first compound 0.253 µM)	relative viability ([1]; first compound 0.8 µM)	relative viability ([1]; first compound 2.53 µM)	relative viability ([1]; first compound 8 µM)	relative viability ([2]; first compound 0.005 µM)	relative viability ([2]; first compound 0.01581 µM)	relative viability ([2]; first compound 0.05 µM)	relative viability ([2]; first compound 0.1581 µM)	relative viability ([2]; first compound 0.5 µM)	relative viability ([3]; first compound 0.005 µM)	relative viability ([3]; first compound 0.01581 µM)	relative viability ([3]; first compound 0.05 µM)	relative viability ([3]; first compound 0.1581 µM)	relative viability ([3]; first compound 0.5 µM)	relative viability ([4]; first compound 0.02 µM)	relative viability ([4]; first compound 0.2 µM)	relative viability ([4]; first compound 0.6325 µM)	relative viability ([4]; first compound 2 µM)
A-427	0.486	0.548	0.495	0.473	0.565	0.521	0.439	0.247	0.121	0.117	1.03	0.889	0.374	0.25	0.143	1.01	0.883	0.682	0.548
PC-14	0.562	0.497	0.489	0.567	0.758	0.483	0.064	0.0553	0.0467	0.0475	0.693	0.452	0.172	0.0738	0.0496	0.117	0.151	0.171	0.191
LCLC-97TM1	0.201	0.244	0.203	0.212	0.277	0.168	0.115	0.103	0.0977	0.0977	0.205	0.18	0.166	0.185	0.179	0.627	0.808	0.613	0.334
BEN	0.415	0.495	0.506	0.483	0.503	1.21	1.2	0.827	0.729	0.439	1.26	–	0.615	0.497	0.286	0.18	0.399	0.543	0.371
NCI-H2085	0.406	0.487	0.497	0.508	0.429	0.313	0.208	0.293	0.215	0.197	0.609	0.53	0.495	0.343	0.28	0.418	0.456	0.445	0.349
LC-2-ad	0.521	0.514	0.37	0.469	0.547	0.945	0.732	0.559	0.165	0.122	0.178	0.338	0.237	0.0434	0.0442	1.09	0.666	0.407	0.337
NCI-H661	0.405	0.433	0.458	0.376	0.449	0.522	0.336	0.29	0.248	0.137	0.651	0.313	0.303	0.283	0.251	0.942	–	0.955	0.888
NCI-H1792	0.646	0.734	–	0.601	0.635	0.374	0.263	0.164	0.0813	0.0466	0.789	0.499	0.187	0.14	0.117	0.616	0.439	0.262	0.182
EPLC-272H	0.255	–	0.323	0.305	0.318	0.291	0.15	0.123	0.067	0.0425	0.977	0.122	0.459	0.156	0.188	0.313	0.296	0.208	0.198
NCI-H1437	0.358	0.296	0.294	0.314	0.333	0.342	0.244	0.26	0.21	0.124	0.918	0.663	0.487	0.413	0.242	0.706	0.324	0.313	0.202
EKVX	0.396	0.35	0.31	0.339	0.465	0.224	0.184	0.143	0.169	0.12	0.729	0.409	0.177	0.214	0.122	0.647	–	0.166	0.152
NCI-H1651	0.493	0.471	0.483	0.554	0.578	0.871	0.785	0.569	0.509	0.346	0.778	0.564	0.385	0.223	0.109	1.02	0.764	0.588	0.466
HCC-15	0.901	0.818	0.543	0.736	0.721	0.305	–	0.192	0.192	0.165	0.887	–	0.64	0.453	0.262	0.293	0.294	0.292	0.225
LCLC-103H	0.465	0.496	0.478	0.453	0.424	0.685	0.472	0.445	0.331	0.332	1.07	0.513	0.365	0.221	0.178	0.951	0.999	0.521	0.28
NCI-H2347	0.42	0.459	0.453	0.379	0.461	0.259	0.248	0.174	0.221	0.186	1.03	0.67	0.34	0.364	–	0.41	0.72	0.41	0.411
NCI-H1915	0.566	0.538	0.574	0.517	0.506	0.252	0.139	0.0978	0.0599	0.0612	1.11	–	0.587	0.445	0.357	0.658	0.855	0.699	0.597
NCI-H650	0.313	0.347	0.32	0.28	0.402	1.07	0.383	0.27	0.222	0.151	0.517	0.318	0.306	0.288	0.178	0.766	0.533	0.348	0.277

Cell Line	relative viability ([1]; first compound 0.08 µM)	relative viability ([1]; first compound 0.253 µM)	relative viability ([1]; first compound 0.8 µM)	relative viability ([1]; first compound 2.53 µM)	relative viability ([1]; first compound 8 µM)	relative viability ([2]; first compound 0.005 µM)	relative viability ([2]; first compound 0.01581 µM)	relative viability ([2]; first compound 0.05 µM)	relative viability ([2]; first compound 0.1581 µM)	relative viability ([2]; first compound 0.5 µM)	relative viability ([3]; first compound 0.005 µM)	relative viability ([3]; first compound 0.01581 µM)	relative viability ([3]; first compound 0.05 µM)	relative viability ([3]; first compound 0.1581 µM)	relative viability ([3]; first compound 0.5 µM)	relative viability ([4]; first compound 0.02 µM)	relative viability ([4]; first compound 0.2 µM)	relative viability ([4]; first compound 0.6325 µM)	relative viability ([4]; first compound 2 µM)
NCI-H2087	0.224	0.273	0.228	0.239	0.224	0.167	0.142	0.0865	0.0713	0.0829	0.875	0.624	0.449	0.118	0.125	0.168	0.162	0.16	0.142
RERF-LC-KJ	1.1	1.11	1.04	1.12	1.07	0.795	0.604	–	0.328	0.207	0.916	0.637	0.392	0.282	0.21	1.42	1.24	1.22	0.904
HOP-62	0.495	0.553	0.469	0.525	0.541	0.359	0.196	0.184	0.141	0.102	1.25	0.816	0.115	0.0862	0.138	0.953	0.92	0.853	0.855
NCI-H2126	0.344	0.333	0.395	0.372	0.361	0.592	0.373	0.375	0.339	0.345	0.827	0.636	0.495	0.426	0.341	0.788	0.371	0.302	0.292
SW 1573	0.451	0.406	0.362	0.336	0.464	0.137	0.0903	0.055	0.047	0.033	0.45	0.299	0.144	0.14	0.148	0.253	0.228	0.323	0.169
NCI-H1793	0.301	0.375	–	0.34	0.364	0.472	–	0.359	0.168	0.169	0.774	0.506	0.593	0.383	0.179	0.205	0.183	0.203	0.176
SK-LU-1	0.387	0.417	0.464	0.369	0.408	0.253	0.15	0.172	0.187	0.12	0.264	0.188	0.18	0.158	0.122	0.196	0.216	0.231	0.193
H3255	0.288	0.32	0.391	0.311	0.326	0.48	0.321	0.236	0.197	0.141	0.612	0.367	0.215	0.174	0.0798	0.945	1	0.83	0.741
EMC-BAC-2	0.532	0.512	0.482	0.505	0.566	0.42	0.225	0.219	0.253	–	0.34	0.23	0.0952	0.131	0.108	1.12	1.23	1.22	1.16
CAL-12T	0.216	0.549	0.314	0.526	0.576	0.19	0.145	0.0965	0.126	0.083	0.374	0.146	0.125	0.0823	0.0729	0.299	0.34	0.363	0.3
NCI-H727	0.621	0.643	0.566	0.627	0.667	0.349	0.346	0.316	0.267	0.257	0.27	0.291	0.212	0.234	0.148	0.329	0.402	0.345	0.295
SK-MES-1	0.313	0.364	0.353	0.373	0.315	0.333	0.281	0.265	0.211	0.139	0.849	0.534	0.246	0.18	0.177	1.07	0.606	0.349	0.255
NCI-H1355	0.335	0.43	0.327	0.395	0.379	0.279	0.255	0.232	0.22	0.147	0.718	0.422	0.21	0.215	0.203	0.644	0.57	0.287	0.246
PC-3 [JPC-3]	0.477	0.521	0.596	0.502	0.545	0.704	0.543	0.453	0.391	0.332	1.05	–	0.638	0.508	0.39	0.66	0.753	0.621	0.524
NCI-H1734	0.298	0.345	0.311	0.32	0.402	0.715	0.387	0.165	0.119	0.101	0.635	0.344	0.239	0.202	0.149	0.173	0.193	0.198	0.189
NCI-H441	0.193	0.183	0.188	0.207	0.195	0.373	0.186	0.168	0.133	0.0933	0.615	0.328	0.316	0.218	0.229	0.447	0.39	0.384	0.242
NCI-H838	0.262	0.234	0.195	0.226	0.223	0.174	0.145	0.208	0.0937	0.0589	0.274	0.208	0.19	0.246	0.114	0.261	0.245	0.209	0.16
